Consider 31 compounds from EP0857721A1, “ACRIDONE COMPOUNDS” (Eisai Co., Ltd., priority 1995, dated 1997).

This experiment concerns RBL-2H3 cells. As to the kind of experiment: Inhibition of serotonin liberation from IgE-sensitized, antigen-stimulated RBL-2H3 cells ([3H]-serotonin). Type of experiment: cell-based. The conditions noted are these: Rattus norvegicus; IgE-sensitized RBL-2H3 cells stimulated with specific antigen; [3H]-labeled serotonin. The source says:
Under the action of an antigen specific to the IgE antibody, RBL-2H3 cells, i.e., a cell line originating in rat cells, not only liberate histamine and serotonin but also produce and liberate cytokines such as TNF" serving as an inflammatory mediator and prostaglandins. In this experimental system, the effects of the compounds of the present invention of inhibiting the liberation of various mediators were examined by using serotonin as an indication.
The cells were labeled with [^3H]-labeled serotonin and, at the same time, sensitized with the IgE antibody. Next, these cells were incubated in the presence of the acridone compounds according to the present invention and then stimulated with the specific antigen. Then the serotonin liberation inhibitory activity of each acridone compound was calculated from the amount of the [^3H]-labeled serotonin thus liberated into the medium due to the above-mentioned stimulation and the amount of the [^3H]-labeled serotonin liberated into the medium by the same experimental procedure as the one described above but adding no acridone compound of the present invention.

For `Cc1ccc2c(=O)c3ccccc3n(CCCNCc3cccc(Cl)c3)c2c1C` [Compound 64], the IC50 (commonly the concentration that gives 50% inhibition) stood at 5 µM.
The same measure for `COc1cccc2c1c(=O)c1ccc(C)c(C)c1n2CCCNCc1ccc(C)cc1` [Compound 88]: 2 µM; for `Cc1ccc2c(=O)c3c(C(C)CC(=O)O)cccc3n(CCCN)c2c1C` (stereo not shown) [Compound 18]: 10 µM; for `Cc1cc(CNCCCn2c3ccccc3c(=O)c3ccc(C)c(C)c32)ccc1O` [Compound 46]: 4 µM.
Take `Cc1ccc2c(=O)c3ccccc3n(CCCNCc3c(Cl)cccc3Cl)c2c1C` [Compound 48]: the IC50 was found to be 1 µM.
Consider `Cc1ccc2c(=S)c3ccccc3n(CCCN)c2c1C` [Compound 130], for which the half-inhibitory concentration (IC50) worked out at 10 µM.
In the case of `Cc1ccc2c(=O)c3ccccc3n(CCCN(CCC(N)=O)Cc3ccccc3)c2c1C` [Compound 76], the IC50 was found to be 4 µM.
For `Cc1ccc2c(=O)c3c(CC(=O)O)cccc3n(CCCNCc3ccccc3C(F)(F)F)c2c1C` [Compound 116], the half-maximal inhibitory concentration (IC50) amounted to 3 µM.
Take `Cc1cc(CN(C)CCCn2c3ccccc3c(=O)c3ccc(C)c(C)c32)cc(C)c1O` [Compound 79]: the IC50 worked out at 7 µM.
The same measure for `Cc1ccc2c(=O)c3c(CCC(=O)O)cccc3n(CCCNCc3ccccc3)c2c1C` [Compound 5]: 3 µM.
Consider `Cc1ccc2c(=O)c3c(CC(=O)O)cccc3n(CCCN(CCO)Cc3ccccc3)c2c1C` [Compound 109], for which the IC50 came to 3 µM.
In the case of `Cc1ccc2c(=O)c3c(CC(=O)O)cccc3n(CCCNCc3ccc(Cl)c(Cl)c3O)c2c1C` [Compound 23], the IC50 was 8 µM.
`CCN(CCCn1c2cccc(CC(=O)O)c2c(=O)c2ccc(C)c(C)c21)Cc1ccccc1` [Compound 91]: the IC50 was found to be 8 µM.
`Cc1ccc2c(=O)c3ccccc3n(Cc3ccc(CN)cc3)c2c1C` [Compound 119]: the 50% inhibitory concentration (IC50) worked out at 4 µM.
`Cc1ccc2c(=O)c3c(CC(=O)O)cccc3n(CCCNCc3ccc(F)cc3F)c2c1C` [Compound 100]: the IC50 stood at 10 µM.
Turning to `Cc1ccc2c(=O)c3ccccc3n(CCCNCc3ccccc3Br)c2c1C` [Compound 44], the IC50 stood at 5 µM.
As for `Cc1ccc2c(=O)c3c(C(C)C(=O)O)cccc3n(CCCN(C)Cc3ccccc3)c2c1C` (stereo not shown) [Compound 140], the IC50 was found to be 4 µM.
With `Cc1ccc2c(=O)c3ccccc3n(CCCNCc3ccc(F)cc3)c2c1C` [Compound 43], the IC50 came out at 2 µM.
For `Cc1ccc2c(=O)c3ccccc3n(CCCN(C3CCCCC3)C3CCCCC3)c2c1C` [Compound 83], the IC50 was 5 µM.
Take `Cc1ccc2c(=O)c3c(C(C)CC(=O)O)cccc3n(CCCNCc3ccc(Cl)cc3Cl)c2c1C` (stereo not shown) [Compound 9]: the IC50 was 10 µM.
For `Cc1cc(CNCCCn2c3ccccc3c(=O)c3ccc(C)c(C)c32)cc(C)c1O` [Compound 47], the IC50 is 7 µM.
In the case of `Cc1ccc2c(=O)c3ccccc3n(CCCNCc3ccc(C#N)cc3)c2c1C` [Compound 36], the IC50 came to 2 µM.
As to `COc1cccc(NCCCn2c3ccccc3c(=O)c3ccc(C)c(C)c32)c1` [Compound 81], the IC50 turned out to be 10 µM.
For the compound `Cc1ccc2c(=O)c3ccccc3n(CC=CCNCc3ccccc3)c2c1C` [Compound 129], the IC50 amounted to 8 µM.
With `Cc1ccc2c(=O)c3ccccc3n(CCCNCc3ccc(Cl)cc3Cl)c2c1C` [Compound 67], the IC50 is 1 µM.
`Cc1ccc2c(=O)c3ccccc3n(CCCNCc3cccc(Br)c3)c2c1C` [Compound 45]: the half-maximal inhibitory concentration (IC50) came out at 2 µM.
The same measure for `Cc1ccc2c(=O)c3ccccc3n(CCCNCc3cccc(C#N)c3)c2c1C` [Compound 35]: 3 µM.
Then `Cc1ccc2c(=O)c3c(C(C)CC(=O)O)cccc3n(CCCNCc3ccccc3)c2c1C` (stereo not shown) [Compound 8], with 8 µM; and `Cc1ccc2c(=O)c3ccccc3n(CCCNc3cccc(-c4nnn[nH]4)c3)c2c1C` [Compound 80], with 11 µM; and `COC(=O)c1ccc(CNCCCn2c3ccccc3c(=O)c3ccc(C)c(C)c32)cc1` [Compound 50], with 4 µM.
As for `Cc1ccc2c(=O)c3ccccc3n(Cc3ccc(CNCc4ccco4)cc3)c2c1C` [Compound 125], the IC50 was 10 µM.
